Reference: patent publication US20230137927A1, “INTERFERON TAU AS ANTIVIRAL THERAPY” (priority 2020, published 2023)
Read-outs that look alike come from different tables or passages of the source.

Assays:
hCoV-229E = hCoV-229E CPE assay; type: cell-based; settings: Human coronavirus 229E
[1] = tested on: SARS CoV-2 (USA_WA1/2020); experiment: SARS-CoV-2 CPE assay in Vero E6 cells; type: cell-based; settings: Severe acute respiratory syndrome coronavirus 2, Vero C1008, reference compounds in the same assay
hCoV-OC43 = experiment: HCoV OC43 CPE assay in Huh7 cells; type: cell-based
[2] = Cytotoxicity in parallel with OC43 CPE assay, without virus; settings: human
Huh7 cells = experiment: as above; settings: Huh7 cells; no virus; reference compounds
[3] = tested on: DENV type 2 Rluc-NGC strain; experiment: microbe, parasite or virus in culture; type: cell-based; settings: Dengue virus, Vero
YFV 17D = experiment: microbe, parasite or virus in culture; type: cell-based; settings: Yellow fever virus
[4] = Betacoronavirus 1, OC43, Huh-7, read-out: Average Inhibition (%)

Work on `CCN(CC)CCCC(C)Nc1ccnc2cc(Cl)ccc12` (stereo not drawn) [Chloroquine] yielded an IC50 (hCoV-229E; MRCS cells, data not shown, read-out: IC50) of 2.2 µM.

With `CCN(CCO)CCCC(C)Nc1ccnc2cc(Cl)ccc12` (stereo not drawn) [Hydroxychloroquine] the IC50 [1] was 1.91 µM.

For `CCC(CC)COC(=O)[C@H](C)N[P@](=O)(OC[C@H]1O[C@@](C#N)(c2ccc3c(N)ncnn23)[C@H](O)[C@@H]1O)Oc1ccccc1` [Remdesivir], the IC50 [1] was 3.9 µM, the EC50 (hCoV-OC43; Betacoronavirus 1, OC43, Huh-7) was 0.0414 µM and the inhibition at 0.000457 µM (hCoV-OC43; [4]) was -4.12%. It also gave an inhibition at 0.001372 µM (hCoV-OC43; [4]) of -0.1%, an inhibition at 0.004115 µM (hCoV-OC43; [4]) of 1.54% and an inhibition at 0.01235 µM (hCoV-OC43; [4]) of 8.25%. It also gave an inhibition at 0.03704 µM (hCoV-OC43; [4]) of 30.4%, an inhibition at 0.11111 µM (hCoV-OC43; [4]) of 83.4% and an inhibition at 0.33333 µM (hCoV-OC43; [4]) of 79.5%. For the same molecule, the inhibition at 1 µM (hCoV-OC43; [4]) was 80.3%, the IC50 (hCoV-229E; 72 h) was 0.0231 µM and the viability at 7 days, 0.046 µM [2] was 100%. For the same molecule, the viability at 7 days, 0.137 µM [2] was 102%, the viability at 7 days, 0.412 µM [2] was 104% and the viability at 7 days, 1.235 µM [2] was 102%. It also gave a viability at 7 days, 3.704 µM [2] of 86.9%, a viability at 7 days, 11.11 µM [2] of 56.8% and a viability at 7 days, 33.33 µM [2] of 36.9%. For the same molecule, the viability at 7 days, 100 µM [2] was 21.8% and the CC50 (Huh7 cells) was 17.2 µM.

Work on `NC(=O)c1ncn([C@@H]2O[C@H](CO)[C@@H](O)[C@H]2O)n1` [Ribavirin] yielded an EC50 [3] of 32.2 µM, an inhibition at 0.015 µM [3] of 14.9% and an inhibition at 0.046 µM [3] of 14.9%. The inhibition at 0.137 µM [3] was 10.8%, the inhibition at 0.412 µM [3] was 13.5% and the inhibition at 1.235 µM [3] was 31.1%. For the same molecule, the inhibition at 3.704 µM [3] was 20.3%, the inhibition at 11.111 µM [3] was 24.3% and the inhibition at 33.333 µM [3] was 60.8%. The inhibition at 100 µM [3] was 98.7%, the inhibition at 300 µM [3] was 100% and the EC50 (YFV 17D; read-out: EC50 for YFV, FIG. 4B as described in Examples 3 & 4) was 225 µM. The EC50 (YFV 17D; read-out: EC50 for YFV, FIG. 4B legend) was 136 µM and the CC50 (in vitro) was > 699 µM.
